According to US20250320205A1, “STAT6 DEGRADERS” (Gilead Sciences, Inc., priority 2024, published 2025):

How the values were obtained:
STAT6 = biological target: T1, STAT6 (Homo sapiens, UniProt P42226); assay: STAT6 Degrader Assay (HiBiT based, HeLa LgBiT clone 4.14 cells); assay type: cell-based; conditions: geometric mean across assay runs and compound batches; DC50 provided for test compounds with >80% Emax; read-out: STAT6 degradation DC50
T1 construct: These cells express endogenous STAT6; host or cells: HeLa LgBiT clone 4.14 (CRISPR knock-in of HiBiT into the endogenous STAT6 gene)
T1 sequence (P42226 1-847): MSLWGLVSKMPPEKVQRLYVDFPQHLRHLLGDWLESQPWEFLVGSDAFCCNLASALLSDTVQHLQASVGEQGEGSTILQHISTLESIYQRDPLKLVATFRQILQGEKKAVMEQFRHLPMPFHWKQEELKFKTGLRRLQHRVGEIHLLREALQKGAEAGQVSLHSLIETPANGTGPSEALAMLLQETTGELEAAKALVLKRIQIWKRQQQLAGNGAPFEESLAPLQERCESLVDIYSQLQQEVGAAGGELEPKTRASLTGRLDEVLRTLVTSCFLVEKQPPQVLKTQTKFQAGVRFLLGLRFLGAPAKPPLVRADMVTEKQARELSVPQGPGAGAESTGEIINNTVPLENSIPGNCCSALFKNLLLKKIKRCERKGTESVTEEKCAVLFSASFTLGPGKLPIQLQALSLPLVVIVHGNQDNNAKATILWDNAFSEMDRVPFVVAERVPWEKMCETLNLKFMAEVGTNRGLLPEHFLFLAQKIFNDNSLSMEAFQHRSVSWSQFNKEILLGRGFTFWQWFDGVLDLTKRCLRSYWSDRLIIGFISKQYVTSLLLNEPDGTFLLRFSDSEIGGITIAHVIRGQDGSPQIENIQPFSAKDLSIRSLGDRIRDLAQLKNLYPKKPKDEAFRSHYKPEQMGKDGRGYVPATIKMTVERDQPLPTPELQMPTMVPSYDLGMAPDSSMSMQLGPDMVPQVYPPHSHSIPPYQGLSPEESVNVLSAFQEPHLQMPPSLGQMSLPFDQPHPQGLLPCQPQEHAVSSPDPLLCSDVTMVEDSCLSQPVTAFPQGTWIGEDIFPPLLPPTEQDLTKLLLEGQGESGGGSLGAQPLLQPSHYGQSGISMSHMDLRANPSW
Method in brief: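 HeLa LgBiT clone 4.14 with CRISPR HiBiT-tagged endogenous STAT6, 5000 cells/well, compound exposure 4-24 h at 37° C. Residual STAT6 read as Nano-Glo luminescence after 0.5 h. 50 μM terfenadine set 100% degradation; DC50 in nM.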

[1] = tested on: Eotaxin-3 (CCL26) release; assay: Human Whole Blood Eotaxin-3 Assay (IL-4 stimulated); assay type: cell-based; conditions: Homo sapiens; geometric mean across assay runs and compound batches; EC50 provided for test compounds with >80% Emax
Method in brief: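 Lithium-heparin human whole blood preincubated 2 h at 37 °C with compounds (4-fold dilutions, triplicate, 0.5% DMSO final). Then stimulated with 400 pM final recombinant human IL-4 for 48 h. Eotaxin-3 in supernatant quantified by MSD immunoassay.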

| DC50 (STAT6) | EC50 [1] | SMILES |
| --- | --- | --- |
| 500 pM | 700 pM | CNc1ccn(-c2ccnc3c2cc([C@H](C)N2CC=C(c4c(F)cc(C(=O)N5CCn6nc(CN7CCC(c8ccc(NC9CCC(=O)NC9=O)cc8F)CC7)cc6C5)cc4F)CC2)n3C)c(=O)c1 (stereo partly drawn) [Example 2g108, 3-((4-(1-((5-(3,5-difluoro-4-(1-((S)-1-(1-methyl-4-(4-(methylamino)-2-oxopyridin-1(2H)-yl)-1H-pyrrolo[2,3-b]pyridin-2-yl)ethyl)-1,2,3,6-tetrahydropyridin-4-yl)benzo-yl)-4,5,6,7-tetrahydropyrazolo [1,5-a]pyrazin-2-yl)methyl)-piperidin-4-yl)-3-fluorophen-yl)amino)piperidine-2,6-dione] |
| 400 pM | 300 pM | CNc1ccn(-c2ccnc3c2cc([C@H](C)N2CCC(c4c(F)cc(C(=O)N5CCn6nc(CN7CCC(c8ccc(NC9CCC(=O)NC9=O)cc8F)CC7)cc6C5)cc4F)CC2)n3C)c(=O)c1 (stereo partly drawn) [Example 2g109, 3-((4-(1-((5-(3,5-difluoro-4-(1-((S)-1-(1-methyl-4-(4-(methylamino)-2-oxopyridin-1(2H)-yl)-1H-pyrrolo[2,3-b]pyridin-2-yl)ethyl)piperidin-4-yl)benzoyl)-4,5,6,7-tetra-hydropyrazolo[1,5-a]pyrazin-2-yl)methyl)piperidin-4-yl)-3-fluorophenyl)amino)piperi-dine-2,6-dione] |
| 10500 pM | 23300 pM | CNc1ccn(-c2ccnc3c2cc([C@@H](C)N2CCC(c4c(F)cc(C(=O)N5CCn6nc(CN7CCC(c8ccc(NC9CCC(=O)NC9=O)cc8F)CC7)cc6C5)cc4F)CC2)n3C)c(=O)c1 (stereo partly drawn) [Example 2g110, 3-((4-(1-((5-(3,5-difluoro-4-(1-((R)-1-(1-methyl-4-(4-(methylamino)-2-oxopyridin-1(2H)-yl)-1H-pyrrolo[2,3-b]pyridin-2-yl)ethyl)piperidin-4-yl)benzoyl)-4,5,6,7-tetra-hydropyrazolo[1,5-a]pyrazin-2-yl)methyl)piperidin-4-yl)-3-fluorophenyl)amino)piperi-dine-2,6-dione] |
| 600 pM | 600 pM | CNc1cc(=O)n(-c2ccnc3c2cc([C@H](C)N2CCC(c4c(F)cc(C(=O)N5CCn6nc(CN7CCC(c8ccc(NC9CCC(=O)NC9=O)cc8F)CC7)cc6C5)cc4F)CC2)n3C)cc1F (stereo partly drawn) [Example 2g111, 3-((4-(1-((5-(3,5-difluoro-4-(1-((S)-1-(4-(5-fluoro-4-(methylamino)-2-oxopyridin-1(2H)-yl)-1-methyl-1H-pyrrolo[2,3-b]pyridin-2-yl)-ethyl)piperidin-4-yl)benzoyl)-4,5,6,7-tetrahydropyrazolo [1,5-a]pyrazin-2-yl)methyl)-piperidin-4-yl)-3-fluorophen-yl)amino)piperidine-2,6-dione] |
| 1100 pM | 900 pM | CNc1cc(=O)n(-c2ccnc3c2cc([C@H](C)N2CC=C(c4c(F)cc(C(=O)N5CCn6nc(CN7CCC(c8ccc(NC9CCC(=O)NC9=O)cc8F)CC7)cc6C5)cc4F)CC2)n3C)cc1F (stereo partly drawn) [Example 2g112, 3-((4-(1-((5-(3,5-difluoro-4-(1-((S)-1-(4-(5-fluoro-4-(methylamino)-2-oxopyridin-1(2H)-yl)-1-methyl-1H-pyr-rolo[2,3-b]pyridin-2-yl)ethyl)-1,2,3,6-tetrahydropyridin-4-yl)benzoyl)-4,5,6,7-tetra-hydropyrazolo[1,5-a]pyrazin-2-yl)methyl)piperidin-4-yl)-3-fluorophenyl)amino)piperi-dine-2,6-dione] |
| 3500 pM | 13800 pM | CNc1ccn(-c2ccnc3c2cc([C@H](C)N2CC=C(c4c(C)cc(C(=O)N5CCC(CN6CCN(c7ncc(NC8CCC(=O)NC8=O)cc7F)C[C@H]6C)CC5)cc4F)CC2)n3C)c(=O)c1 (stereo partly drawn) [Example 2g113, 3-((5-fluoro-6-((R)-4-((1-(3-fluoro-5-methyl-4-(1-((S)-1-(1-methyl-4-(4-(methyl-amino)-2-oxopyridin-1(2H)-yl)-1H-pyrrolo[2,3-b]pyridin-2-yl)ethyl)-1,2,3,6-tetrahydro-pyridin-4-yl)benzoyl)piperi-din-4-yl)methyl)-3-methyl-piperazin-1-yl)pyridin-3-yl)-amino)piperidine-2,6-dione] |
| 300 pM | 500 pM | CNc1ccn(-c2ccnc3c2cc([C@H](C)N2CC=C(c4c(C)cc(C(=O)N5CCn6nc(CN7CCC(c8ccc(NC9CCC(=O)NC9=O)c(OC)c8)CC7)cc6C5)cc4F)CC2)n3C)c(=O)c1 (stereo partly drawn) [Example 2g116, 3-((4-(1-((5-(3-fluoro-5-meth-yl-4-(1-((S)-1-(1-methyl-4-(4-(methylamino)-2-oxopyridin-1(2H)-yl)-1H-pyrrolo[2,3-b]pyridin-2-yl)ethyl)-1,2,3,6-tetrahydropyridin-4-yl)benzo-yl)-4,5,6,7-tetrahydropyrazolo [1,5-a]pyrazin-2-l)methyl)-piperidin-4-yl)-2-methoxy-phenyl)amino)-piperidine-2,6-dione] |
| 14000 pM | 48200 pM | CNc1cc(=O)n(-c2ccnc3c2cc([C@H](C)N2CC=C(c4c(F)cc(C(=O)N5CCC(CN6CCN(c7ccc(NC8CCC(=O)NC8=O)cc7F)CC6)CC5)cc4F)CC2)n3C)cc1F (stereo partly drawn) [Example 2g119, 3-((4-(4-((1-(3,5-difluoro-4-(1-((S)-1-(4-(5-fluoro-4-(methylamino)-2-oxopyridin-1(2H)-yl)-1-methyl-1H-pyr-rolo[2,3-b]pyridin-2-yl)ethyl)-1,2,3,6-tetrahydropyridin-4-yl)benzoyl)piperidin-4-yl)-methyl)piperazin-1-yl)-3-fluorophenyl)amino)piperi-dine-2,6-dione] |
| 1800 pM | 3600 pM | CNc1cc(=O)n(-c2ccnc3c2cc(CN2CCC(c4c(F)cc(C(=O)N5CCn6nc(CN7CCC(c8ccc(NC9CCC(=O)NC9=O)c(OC)c8)CC7)cc6C5)cc4F)CC2)n3C)cc1F (centres unmarked) [Example 2g122, 3-((4-(1-((5-(3,5-difluoro-4-(1-((4-(5-fluoro-4-(methyl-amino)-2-oxopyridin-1(2H)-yl)-1-methyl-1H-pyrrolo[2,3-b]pyridin-2-yl)methyl)piperi-din-4-yl)benzoyl)-4,5,6,7-tetrahydropyrazolo[1,5-a]pyr-azin-2-yl)methyl)piperidin-4-yl)-2-methoxyphenyl)amino)-piperidine-2,6-dione] |
| 100 pM | 200 pM | CNc1ccn(-c2ccnc3c2cc([C@H](C)N2CC=C(c4c(C)cc(C(=O)N5CCn6nc(CN7CCC(c8cc(OC)c(NC9CCC(=O)NC9=O)cc8F)CC7)cc6C5)cc4F)CC2)n3C)c(=O)c1 (stereo partly drawn) [Example 2g128, 3-((5-fluoro-4-(1-((5-(3-fluoro-5-methyl-4-(1-((S)-1-(1-methyl-4-(4-(methyl-amino)-2-oxopyridin-1(2H)-yl)-1H-pyrrolo[2,3-b]pyridin-2-yl)ethyl)-1,2,3,6-tetrahydro-pyridin-4-yl)benzoyl)-4,5,6,7-tetrahydropyrazolo[1,5-a]pyr-azin-2-yl)methyl)piperidin-4-yl)-2-methoxyphenyl)amino)-piperidine-2,6-dione] |
